Assay results taken from patent publication US20260274829A1, “NEW E3 UBIQUITIN LIGASE LIGAND, PROTEIN DEGRADATION AGENT AND USE THEREOF” (GLUETACS THERAPEUTICS (SHANGHAI) CO., LTD., priority 2023, published 2026).

What follows are compounds tested against T1, human Cereblon WT GST-tagged protein (Homo sapiens, UniProt Q96SW2) (assay: CRBN binding, HTRF CEREBLON BINDING kit). Conditions: CRBN binding, HTRF CEREBLON BINDING kit.
T1 construct: purchased CISBIO 64BDCRBNPEH
T1 sequence (Q96SW2 whole entry): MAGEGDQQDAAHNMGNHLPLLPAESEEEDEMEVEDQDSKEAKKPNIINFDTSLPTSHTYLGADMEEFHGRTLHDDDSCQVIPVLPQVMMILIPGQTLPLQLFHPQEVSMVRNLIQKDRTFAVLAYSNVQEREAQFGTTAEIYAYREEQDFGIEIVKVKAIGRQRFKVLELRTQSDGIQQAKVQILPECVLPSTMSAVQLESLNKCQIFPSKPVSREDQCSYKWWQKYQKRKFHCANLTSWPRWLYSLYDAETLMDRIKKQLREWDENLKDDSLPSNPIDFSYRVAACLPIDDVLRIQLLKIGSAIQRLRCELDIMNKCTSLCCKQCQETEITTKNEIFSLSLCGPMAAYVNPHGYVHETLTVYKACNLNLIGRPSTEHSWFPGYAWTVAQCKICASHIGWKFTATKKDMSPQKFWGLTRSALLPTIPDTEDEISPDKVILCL
Protocol: The CEREBLON BINDING kits (specification: 10,000 tests; product number: Catalog #64BDCRBNPEH; CISBIO company) was used to determine the CRBN binding ability of the compounds to be tested through a HTRF method (homogeneous time-resolved fluorescence). The specific methods are as follows: • 1. […] Then, 2.5 μL of human Cereblon WT GST-tagged protein solution was added to each well. Finally, 5 μL of the thoroughly mixed Thalidomide-Re reagent and GST Eu antibody working solution were added to each of the aforementioned wells. […] The blank control wells were sequentially added with 2.5 μL of diluent #9 (1×) solution, 2.5 μL of binding buffer, and 5 μL of thoroughly mixed Thalidomide-Re reagent and GST Eu antibody working solution. • 4. After sealing and incubating the solutions in the aforementioned wells at room temperature for 3 hours, the absorbance values at emission wavelengths of 620 nm and 665 nm were detected by the HTRF method using a Spark microplate reader (V3.1 SP1).
The corresponding CRBN binding inhibition rate was calculated using the following method:
[formula] [formula] [formula] • Note: OD 665 nmcompound is the absorbance value of each well of the compounds to be tested of the present disclosure at an emission wavelength of 665 nm. • OD 620 nmcompound is the absorbance value of each well of the compounds to be tested of the present disclosure at an emission wavelength of 620 nm. • OD 665 nmcontrol is the absorbance value of the blank control well at an emission wavelength of 665 nm. • OD 620 nmcontrol is the absorbance value of the blank control well at an emission wavelength of 620 nm. • OD 665 nmStd0 is the absorbance value of the solvent control well at an emission wavelength of 665 nm. • OD 620 nmStd0 is the absorbance value of the solvent control well at an emission wavelength of 620 nm.
`CN(Cc1ccc(N2CCC(=O)NC2=O)cn1)C1CCN(c2ccc(-c3cc(F)c4c(c3)C(=O)N(C(C(=O)Nc3nccs3)c3ncn5c3CCC5)C4)cc2)CC1` (stereo not drawn) [GT-05282, 2-(6,7-dihydro-5H-pyrrolo[1,2-c]imidazol-1-yl)-2-(6-(4-(4-(((5-(2,4-dioxotetrahydropyrimidin-1(2H)-yl)pyridin-2-yl)methyl)(methyl)amino)piperidin-1-yl)phenyl)-4-fluoro-1-oxoisoindolin-2-yl)-N-(thiazol-2-yl)acetamide] was tested, and the IC50 was 500 to 1000 nM. Compound `CN(Cc1ccc(N2CCC(=O)NC2=O)nc1)C1CCN(c2ccc(-c3cc(F)c4c(c3)C(=O)N(C(C(=O)Nc3nccs3)c3ncn5c3CCC5)C4)cc2)CC1` (stereo not drawn) [GT-05283, 2-(6,7-dihydro-5H-pyrrolo[1,2-c]imidazol-1-yl)-2-(6-(4-(4-(((6-(2,4-dioxotetrahydropyrimidin-1(2H)-yl)pyridin-3-yl)methyl)(methyl)amino)piperidin-1-yl)phenyl)-4-fluoro-1-oxoisoindolin-2-yl)-N-(thiazol-2-yl)acetamide] has an IC50 of 1000 to 1900 nM. `CN(Cc1ccc(C2CCC(=O)NC2=O)cc1)C1CCN(c2ccc(-c3cc(F)c4c(c3)C(=O)N(C(C(=O)Nc3nccs3)c3ncn5c3CCC5)C4)cc2)CC1` (stereo not drawn) [GT-05218, 2-(6,7-dihydro-5H-pyrrolo[1,2-c]imidazol-1-yl)-2-(6-(4-(4-((4-(2,6-dioxopiperidin-3-yl)benzyl)(methyl)amino)piperidin-1-yl)phenyl)-4-fluoro-1-oxoisoindolin-2-yl)-N-(thiazol-2-yl)acetamide] gave an IC50 of 500 to 1000 nM. In the case of `CC(C)(O)c1cc2nn(C3CCN(Cc4ccc(N5CCC(=O)NC5=O)cn4)CC3)cc2cc1NC(=O)c1cccc(C(F)(F)F)n1` [GT-05756, N-(2-(1-((5-(2,4-dioxotetrahydropyrimidin-1(2H)-yl)pyridin-2-yl)methyl)piperidin-4-yl)-6-(2-hydroxypropan-2-yl)-2H-indazol-5-yl)-6-(trifluoromethyl)picolinamide], the IC50 is reported as 500 to 1000 nM. `O=C1CCN(c2cc(CN3CCN(c4ccc(-c5cc(F)c6c(c5)C(=O)N(C(C(=O)Nc5nccs5)c5ncn7c5CCC7)C6)cc4)CC3)ccn2)C(=O)N1` (stereo not drawn) [GT-07379, 2-(6,7-dihydro-5H-pyrrolo[1,2-c]imidazol-1-yl)-2-(6-(4-(4-((2-(2,4-dioxotetrahydropyrimidin-1(2H)-yl)pyridin-4-yl)methyl)piperazin-1-yl)phenyl)-4-fluoro-1-oxoisoindolin-2-yl)-N-(thiazol-2-yl)acetamide] was tested, and the IC50 was under 500 nM. For `O=C1CCN(c2ccc(CN3C4CCC3CN(c3ccc(-c5cc(F)c6c(c5)C(=O)N(C(C(=O)Nc5nccs5)c5ncn7c5CCC7)C6)cc3)C4)cc2)C(=O)N1` (stereo not drawn) [GT-06253, 2-(6,7-dihydro-5H-pyrrolo[1,2-c]imidazol-1-yl)-2-(6-(4-(8-(4-(2,4-dioxotetrahydropyrimidin-1(2H)-yl)benzyl)-3,8-diazabicyclo[3.2.1]octan-3-yl)phenyl)-4-fluoro-1-oxoisoindolin-2-yl)-N-(thiazol-2-yl)acetamide], the IC50 was 500 to 1000 nM. With `COC1CCN(c2nccc(Nc3cc4c(cn3)c(N3CCC(N(C)Cc5cccc(NC6CCC(=O)NC6=O)c5)CC3)nn4C(C)C)n2)CC1` (stereo not drawn) [GT-06123, 3-((3-(((1-(1-isopropyl-6-((2-(4-methoxypiperidin-1-yl)pyrimidin-4-yl)amino)-1H-pyrazolo[4,3-c]pyridin-3-yl)piperidin-4-yl)(methyl)amino)methyl)phenyl)amino)piperidine-2,6-dione] the IC50 was 500 to 1000 nM. `CCc1cc2c(cc1N1CCC(N3CCN(Cc4ccnc(C5CCC(=O)NC5=O)c4)CC3)CC1)C(C)(C)c1[nH]c3cc(C#N)ccc3c1C2=O` (stereo not drawn) [GT-07704, 8-(4-(4-((2-(2,6-dioxopiperidin-3-yl)pyridin-4-yl)methyl)piperazin-1-yl)piperidin-1-yl)-9-ethyl-6,6-dimethyl-11-oxo-6,11-dihydro-5H-benzo[b]carbazole-3-carbonitrile] showed an IC50 of 1000 to 1900 nM. `O=C1CCN(c2ccc(CN3CCN(C4CCN(c5ccc(Nc6ncc7nc(Nc8ccccc8)n(C8CCCC8)c7n6)cc5)CC4)CC3)nc2)C(=O)N1` [GT-05941, 1-(6-((4-(1-(4-((9-cyclopentyl-8-(phenylamino)-9H-purin-2-yl)amino)phenyl)piperidin-4-yl)piperazin-1-yl)methyl)pyridin-3-yl)dihydropyrimidine-2,4(1H,3H)-dione] was tested, and the IC50 was 1000 to 1900 nM. Compound `O=C1CCC(c2ccc(CN3CCC(N4CCN(c5ccc6c(c5)nc(NC(=O)c5cccc(C(F)(F)F)c5)n6[C@H]5CC[C@@H](CO)CC5)CC4)CC3)cc2)C(=O)N1` (stereo partly drawn) [GT-05020, N-(5-(4-(1-(4-(2,6-dioxopiperidin-3-yl)benzyl)piperidin-4-yl)piperazin-1-yl)-1-((1s,4s)-4-(hydroxymethyl)cyclohexyl)-1H-benzo[d]imidazol-2-yl)-3-(trifluoromethyl)benzamide] has an IC50 of 1000 to 1900 nM. `CNC(=O)c1ccc(N2C(=S)N(c3ccc(C#N)c(C(F)(F)F)c3)C(=O)C2(C)C)cc1F` [Enzalutamide] gave an IC50 of over 10000 nM. `CCc1cc2c(cc1N1CCC(N3CCN(Cc4cccc(NC5CCC(=O)NC5=O)c4)CC3)CC1)C(C)(C)c1[nH]c3cc(C#N)ccc3c1C2=O` (stereo not drawn) [GT-07313, 8-(4-(4-(3-((2,6-dioxopiperidin-3-yl)amino)benzyl)piperazin-1-yl)piperidin-1-yl)-9-ethyl-6,6-dimethyl-11-oxo-6,11-dihydro-5H-benzo[b]carbazole-3-carbonitrile] gave an IC50 of 1000 to 1900 nM. `O=C1CCC(Nc2cccc(CN3CCN(c4ccc5c(c4)nc(NC(=O)c4cccc(C(F)(F)F)c4)n5[C@H]4CC[C@@H](CO)CC4)CC3)c2)C(=O)N1` (stereo partly drawn) [GT-04985, N-(5-(4-(3-((2,6-dioxopiperidin-3-yl)amino)benzyl)piperazin-1-yl)-1-((1s,4s)-4-(hydroxymethyl)cyclohexyl)-1H-benzo[d]imidazol-2-yl)-3-(trifluoromethyl)benzamide] showed an IC50 of 500 to 1000 nM. `CN1CCN([C@@H]2CCCN(c3cnc(C(N)=O)c(Nc4ccc(C5CCN(Cc6cccc(N7CCC(=O)NC7=O)c6)CC5)cc4)n3)C2)C1=O` [GT-04800, (R)-3-((4-(1-(3-(2,4-dioxotetrahydropyrimidin-1(2H)-yl)benzyl)piperidin-4-yl)phenyl)amino)-5-(3-(3-methyl-2-oxoimidazolidin-1-yl)piperidin-1-yl)pyrazine-2-carboxamide] was tested, and the IC50 was 500 to 1000 nM. `CC(C)(O)c1cc2nc(C3CCN(Cc4cccc(N5CCC(=O)NC5=O)c4)CC3)oc2cc1NC(=O)c1cccc(C(F)(F)F)n1` [GT-05773, N-(2-(1-(3-(2,4-dioxotetrahydropyrimidin-1(2H)-yl)benzyl)piperidin-4-yl)-5-(2-hydroxypropan-2-yl)benzo[d]oxazol-6-yl)-6-(trifluoromethyl)picolinamide] showed an IC50 of 500 to 1000 nM. With `O=C1CCN(c2ccc(CN3CCN(c4ccc(Nc5ncc6nc(Nc7ccccc7)n(C7CCCC7)c6n5)cc4)CC3)nc2)C(=O)N1` [GT-05839, 1-(6-((4-(4-((9-cyclopentyl-8-(phenylamino)-9H-purin-2-yl)amino)phenyl)piperazin-1-yl)methyl)pyridin-3-yl)dihydropyrimidine-2,4(1H,3H)-dione] the IC50 was 500 to 1000 nM. Work on `Nc1nc(Nc2ccc(S(=O)(=O)N3CCN(Cc4ccc(C5CCC(=O)NC5=O)cc4)CC3)cc2)nn1C(=O)c1c(F)cccc1F` (stereo not drawn) [GT-06750, 3-(4-((4-((4-((5-amino-1-(2,6-difluorobenzoyl)-1H-1,2,4-triazol-3-yl)amino)phenyl)sulfonyl)piperazin-1-yl)methyl)phenyl)piperidine-2,6-dione] yielded an IC50 of 500 to 1000 nM. For `COc1cc(N2CCC(N(C)Cc3cncc(N4CCC(=O)NC4=O)c3)CC2)ccc1Nc1ncc(Cl)c(Nc2ccccc2P(C)(C)=O)n1` [GT-07695, 1-(5-(((1-(4-((5-chloro-4-((2-(dimethylphosphoryl)phenyl)amino)pyrimidin-2-yl)amino)-3-methoxyphenyl)piperidin-4-yl)(methyl)amino)methyl)pyridin-3-yl)dihydropyrimidine-2,4(1H,3H)-dione], the IC50 was 1000 to 1900 nM. Work on `C#Cc1cccc(Nc2ncnc3cc(OCCOC)c(OCCOC)cc23)c1` [erlotinib, reference compound] yielded an IC50 of over 10000 nM. Work on `O=C1CCN(c2cccc(CN3CCN(c4ccc(-c5cc(F)c6c(c5)C(=O)N(C(C(=O)Nc5nccs5)c5ncn7c5CCC7)C6)cc4)CC3)c2)C(=O)N1` (stereo not drawn) [GT-06165, 2-(6,7-dihydro-5H-pyrrolo[1,2-c]imidazol-1-yl)-2-(6-(4-(4-(3-(2,4-dioxotetrahydropyrimidin-1(2H)-yl)benzyl)piperazin-1-yl)phenyl)-4-fluoro-1-oxoisoindolin-2-yl)-N-(thiazol-2-yl)acetamide] yielded an IC50 of under 500 nM. In the case of `Cc1nc2c(F)cc(-c3nc(Nc4ccc(CN5CCN(Cc6ccc(N7CCC(=O)NC7=O)cn6)CC5)cn4)ncc3F)cc2n1C(C)C` [GT-06667, 1-(6-((4-((6-((5-fluoro-4-(4-fluoro-1-isopropyl-2-methyl-1H-benzo[d]imidazol-6-yl)pyrimidin-2-yl)amino)pyridin-3-yl)methyl)piperazin-1-yl)methyl)pyridin-3-yl)dihydropyrimidine-2,4(1H,3H)-dione], the IC50 is reported as 1000 to 1900 nM.
